Reference: article PMC9374667 (Communications Biology, 2022)
“And” between values parts separate entries of the source, which are not always exact repeats. Equal entries are not always repeated.

Tests used:
db/db mice [1] = assay: Body weight of db/db mice during 35-day treatment; format: in vivo; details: db/db mice; for Average body weight gain: day 35, mean ± SD; for Body weight gain in 5 weeks: individual mice
Experimental: (§1) The lean wild type control and the db/db control mice were given equal vehicle volume (0.5% CMC-Na solution). All mice were monitored for food intake, body weight, and fasting blood glucose during the 35-day trial. Glucose tolerance test (GTT) and insulin resistance test (ITT) were performed at 4 and 5 weeks of treatment, respectively. Metabolic analysis was performed at 5 weeks of treatment. At the end of the study, blood samples were taken through the retroorbital venous sinus of mice, fat depots (brown fat, inguinal subcutaneous fat, epididymal fat, perirenal fat and mesenteric fat depot) were dissected, weighed, and immediately frozen in liquid nitrogen and stored at −80 °C until required. Weight of fat depots are expressed in percentage (fat depots weight /bodyweight * 100%).

db/db mice [2] = assay: Weekly fasting glucose levels of db/db mice; format: in vivo; details: individual mice 1-10, in mmol/L
Experimental: as §1

CC(C)Cc1ccc(C(C)C(=O)[O-])cc1.COc1ccc2cc3[n+](cc2c1OC)CCc1cc2c(cc1-3)OCO2.O.O.O.O [BJ, berberine-ibuprofen]
Body weight (db/db mice [1]; 75 mg/kg gavage once per day, day 1, individual mice, 75 mg/kg): 42 grams and 38 grams and 33 grams and 41 grams and 34 grams and 40 grams
Body weight (db/db mice [1]; 75 mg/kg gavage once per day, day 4, individual mice, 75 mg/kg): 44 grams and 40 grams and 36 grams and 41 grams and 39 grams and 42 grams
Body weight (db/db mice [1]; 75 mg/kg gavage once per day, day 7, individual mice, 75 mg/kg): 45 grams and 40 grams and 41 grams and 35 grams and 43 grams and 36 grams
Body weight (db/db mice [1]; 75 mg/kg gavage once per day, day 10, individual mice, 75 mg/kg): 43 grams and 40 grams and 42 grams and 35 grams and 44 grams and 36 grams
Body weight (db/db mice [1]; 75 mg/kg gavage once per day, day 13, individual mice, 75 mg/kg): 45 grams and 42 grams and 43 grams and 35 grams and 37 grams and 41 grams and 44 grams
Body weight (db/db mice [1]; 75 mg/kg gavage once per day, day 16, individual mice, 75 mg/kg): 44 grams and 42 grams and 37 grams and 46 grams and 39 grams
Body weight (db/db mice [1]; 75 mg/kg gavage once per day, day 19, individual mice, 75 mg/kg): 47 grams and 42 grams and 46 grams and 38 grams and 48 grams and 37 grams and 44 grams and 45 grams and 41 grams
Body weight (db/db mice [1]; 75 mg/kg gavage once per day, day 22, individual mice, 75 mg/kg): 49 grams and 44 grams and 48 grams and 39 grams and 38 grams and 46 grams and 47 grams and 42 grams
Body weight (db/db mice [1]; 75 mg/kg gavage once per day, day 25, individual mice, 75 mg/kg): 50 grams and 45 grams and 49 grams and 40 grams and 48 grams and 38 grams and 46 grams and 42 grams
Body weight (db/db mice [1]; 75 mg/kg gavage once per day, day 28, individual mice, 75 mg/kg): 50 grams and 46 grams and 40 grams and 49 grams and 45 grams and 47 grams and 41 grams
Body weight (db/db mice [1]; 75 mg/kg gavage once per day, day 31, individual mice, 75 mg/kg): 53 grams and 47 grams and 52 grams and 40 grams and 50 grams and 41 grams and 43 grams
Body weight (db/db mice [1]; 75 mg/kg gavage once per day, day 34, individual mice, 75 mg/kg): 52 grams and 47 grams and 44 grams and 51 grams and 43 grams and 50 grams and 45 grams and 48 grams
Average body weight gain (db/db mice [1]; 75 mg/kg gavage once per day): 9.4 ± 2.7 g
Body weight gain in 5 weeks (db/db mice [1]; 75 mg/kg gavage once per day, 75 mg/kg): 7 grams and 10 grams and 9 grams and 14 grams and 11 grams
Body weight (db/db mice [1]; 150 mg/kg gavage once per day, day 1, individual mice, 150 mg/kg): 38 grams and 44 grams
Body weight (db/db mice [1]; 150 mg/kg gavage once per day, day 4, individual mice, 150 mg/kg): 39 grams
Body weight (db/db mice [1]; 150 mg/kg gavage once per day, day 7, individual mice, 150 mg/kg): 39 grams
Body weight (db/db mice [1]; 150 mg/kg gavage once per day, day 10, individual mice, 150 mg/kg): 38 grams
Body weight (db/db mice [1]; 150 mg/kg gavage once per day, day 13, individual mice, 150 mg/kg): 40 grams
Body weight (db/db mice [1]; 150 mg/kg gavage once per day, day 16, individual mice, 150 mg/kg): 39 grams
Body weight (db/db mice [1]; 150 mg/kg gavage once per day, day 19, individual mice, 150 mg/kg): 39 grams
Body weight (db/db mice [1]; 150 mg/kg gavage once per day, day 22, individual mice, 150 mg/kg): 37 grams
Body weight (db/db mice [1]; 150 mg/kg gavage once per day, day 25, individual mice, 150 mg/kg): 37 grams and 44 grams
Body weight (db/db mice [1]; 150 mg/kg gavage once per day, day 28, individual mice, 150 mg/kg): 38 grams and 43 grams
Body weight (db/db mice [1]; 150 mg/kg gavage once per day, day 31, individual mice, 150 mg/kg): 40 grams and 46 grams
Body weight (db/db mice [1]; 150 mg/kg gavage once per day, day 34, individual mice, 150 mg/kg): 43 grams and 48 grams
Average body weight gain (db/db mice [1]; 150 mg/kg gavage once per day): 5.2 ± 0.9 g
Body weight gain in 5 weeks (db/db mice [1]; 150 mg/kg gavage once per day, 150 mg/kg): 6 grams and 5 grams and 4 grams
Body weight compared with vehicle (db/db mice [1]; 5 weeks, BJ 75 and 150 mg/kg, BBR 150 mg/kg, Ibu 150 mg/kg): lower body weight than the db/db mice treated with the vehicle
Weekly fasting glucose levels of db/db mice (Figure 5a) (db/db mice [2]; BJ 75mg/kg, 1st of 6 weekly columns (time not given)): 10.4 and 12.5 and 9.4 and 17.8 and 11.6 and 18.6 and 12.1 and 17.5 and 20.6 and 14.4
Weekly fasting glucose levels of db/db mice (Figure 5a) (db/db mice [2]; BJ 75mg/kg, 2nd of 6 weekly columns (time not given)): 21.7 and 12.2 and 16.6 and 18.3 and 16.2 and 21.2 and 15.0 and 18.5 and 24.4 and 17.9
Weekly fasting glucose levels of db/db mice (Figure 5a) (db/db mice [2]; BJ 75mg/kg, 3rd of 6 weekly columns (time not given)): 27.0 and 17.1 and 16.6 and 26.0 and 22.1 and 24.6 and 22.7 and 19.1 and 24.8 and 20.1
Weekly fasting glucose levels of db/db mice (Figure 5a) (db/db mice [2]; BJ 75mg/kg, 4th of 6 weekly (time not given)): 16.0 and 19.4 and 17.3 and 23.1 and 21.0 and 18.7 and 20.0 and 16.7 and 18.3 and 19.6
Weekly fasting glucose levels of db/db mice (Figure 5a) (db/db mice [2]; BJ 75mg/kg, 5th of 6 weekly (time not given)): 8.5 and 16.1 and 10.1 and 17.8 and 19.9 and 13.5 and 18.2 and 12.3 and 18.1 and 11.2
Weekly fasting glucose levels of db/db mice (Figure 5a) (db/db mice [2]; BJ 75mg/kg, 6th of 6 weekly (time not given)): 8.3 and 14.2 and 11.5 and 16.0 and 17.3 and 15.9 and 14.1 and 11.0 and 16.7 and 10.7
Weekly fasting glucose levels of db/db mice (Figure 5a) (db/db mice [2]; BJ 150mg/kg, 1st of 6 weekly columns (time not given)): 19.4 and 13.4 and 14.8 and 9.9 and 15.4 and 23.3 and 12.6
